The values that follow are results of earlier work, collected in paper PMC7651685 (Psychopharmacology, 2020).

As a reminder, the pIC50 is −log10 of the IC50, conventionally taken in molar units.

The structures appear in SMILES notation. pIC50: −log10 of the molar value. Where a name gives a salt, the structure may show the parent alone.

Series [1] has as its system DAT. On the set-up: method as in Hasenhuetl et al. [2015]. The following applies: ref Hasenhuetl et al. [2015]; cited from earlier work.
Series [2] relates to DAT. The following applies: ref Rowley et al. [2017]; read-out: Affinity for DAT, IC50; cited from earlier work.
For series [3], the system named is solute carrier (SLC) and organic anion transporters (OAT). The following applies: LLC-PK1 cell monolayers and Xenopus Laevis Oocytes; Data-on-file; ref Sunovion Reports #531, 544, 575; cited from earlier work.
For series [4] the following is noted: orally administered, recreational stimulant users; ref Koblan et al. [2016]; cited from earlier work.
The conditions of series [5]: rodent, 14C-DAS; Data-on-file; ref Sunovion report 360-365; cited from earlier work.
The subject of the next series is P-gp. The following applies: LLC-PK1 cell monolayers and Xenopus Laevis Oocytes; Data-on-file; ref Sunovion Reports #531, 544, 575; cited from earlier work.

In the case of `COC(=O)C(c1ccccc1)C1CCCCN1` (racemic) [MPH, (±)-Methyl α-Phenyl-α-(2-piperidyl)acetate hydrochloride, reference compound], the “Association rate (kon) to DAT” value with DAT [1] is 830000 M⁻¹ s⁻¹.

Take `N[C@@H]1CC[C@@H](c2ccc(Cl)c(Cl)c2)c2ccccc21` [DAS, (1R,4S)-4-(3,4-dichlorophenyl)-1,2,3,4-tetra-hydronaphthalen-1-amine]: the pIC50 with DAT [2] is 8.52. In series [3], the “Active uptake by SLC and OAT transporters” value was “not actively taken up”. In series [4], the Potential for abuse entry is on record as “low potential for abuse compared with MPH”. Besides, the “brain:plasma ratio/partition coefficient (Kp)” value in series [5] was 6.2–12.3. The “Substrate for P-gp” value in the series on P-gp is recorded as “not a substrate”.
